Measured values as given in ChEMBL document CHEMBL4706768, “Discovery of Potent, Selective Triazolothiadiazole-Containing c-Met Inhibitors” (ACS Med Chem Lett, 2021).

What was measured:
[1] = molecular target: Tyrosine-protein kinase ABL1 (Homo sapiens) (UniProt P00519); assay: Inhibition of recombinant N-terminal His6-tagged human ABL (27 to end residues) expressed in baculovirus infected Sf21 insect cells at 2 uM using Abltide as substrate relative to control
[2] = molecular target: Tyrosine-protein kinase Blk (Homo sapiens) (UniProt P51451); assay: Inhibition of recombinant N-terminal His6-tagged human full-length BLK expressed in Sf21 insect cells at 2 uM using Poly (Glu4-Tyr) (4:1) as substrate relative to control
Chain of Tyrosine-protein kinase Blk (Homo sapiens) (P51451 2-505 limits assumed): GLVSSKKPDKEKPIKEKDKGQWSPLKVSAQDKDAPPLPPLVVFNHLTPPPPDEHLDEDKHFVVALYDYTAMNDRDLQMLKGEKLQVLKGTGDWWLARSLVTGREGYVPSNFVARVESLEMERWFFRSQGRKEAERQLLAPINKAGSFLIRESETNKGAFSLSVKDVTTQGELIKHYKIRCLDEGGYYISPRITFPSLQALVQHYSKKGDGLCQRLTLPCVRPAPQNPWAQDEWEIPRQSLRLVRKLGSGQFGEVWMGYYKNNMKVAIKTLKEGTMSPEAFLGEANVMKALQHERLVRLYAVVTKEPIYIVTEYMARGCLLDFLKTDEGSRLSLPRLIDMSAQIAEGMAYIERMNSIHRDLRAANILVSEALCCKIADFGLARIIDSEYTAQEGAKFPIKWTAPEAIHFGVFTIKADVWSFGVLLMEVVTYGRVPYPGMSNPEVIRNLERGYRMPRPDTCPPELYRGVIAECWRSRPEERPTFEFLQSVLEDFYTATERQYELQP

[3] = molecular target: MAP kinase-activated protein kinase 5 (Homo sapiens) (UniProt Q8IW41); assay: Inhibition of recombinant human N-terminal His6-tagged full-length PRAK expressed in baculovirus infected Sf21 insect cells at 2 uM using PRAK substrate peptide relative to control
Chain of MAP kinase-activated protein kinase 5 (Homo sapiens) (Q8IW41 whole entry): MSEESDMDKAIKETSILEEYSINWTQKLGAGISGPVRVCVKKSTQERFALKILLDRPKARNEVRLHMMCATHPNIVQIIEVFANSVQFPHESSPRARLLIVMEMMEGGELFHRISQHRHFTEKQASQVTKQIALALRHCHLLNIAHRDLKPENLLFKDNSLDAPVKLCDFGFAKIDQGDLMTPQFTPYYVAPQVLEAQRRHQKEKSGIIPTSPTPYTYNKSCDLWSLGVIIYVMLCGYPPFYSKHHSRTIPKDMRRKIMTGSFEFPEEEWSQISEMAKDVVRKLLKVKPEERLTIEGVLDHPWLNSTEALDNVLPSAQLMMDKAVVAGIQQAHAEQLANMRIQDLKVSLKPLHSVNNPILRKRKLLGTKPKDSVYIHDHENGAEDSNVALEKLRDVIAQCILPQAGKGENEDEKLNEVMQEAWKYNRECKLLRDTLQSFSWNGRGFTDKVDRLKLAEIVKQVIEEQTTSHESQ

Measured: inhibition

Chain of Tyrosine-protein kinase ABL1 (Homo sapiens) (P00519 whole entry): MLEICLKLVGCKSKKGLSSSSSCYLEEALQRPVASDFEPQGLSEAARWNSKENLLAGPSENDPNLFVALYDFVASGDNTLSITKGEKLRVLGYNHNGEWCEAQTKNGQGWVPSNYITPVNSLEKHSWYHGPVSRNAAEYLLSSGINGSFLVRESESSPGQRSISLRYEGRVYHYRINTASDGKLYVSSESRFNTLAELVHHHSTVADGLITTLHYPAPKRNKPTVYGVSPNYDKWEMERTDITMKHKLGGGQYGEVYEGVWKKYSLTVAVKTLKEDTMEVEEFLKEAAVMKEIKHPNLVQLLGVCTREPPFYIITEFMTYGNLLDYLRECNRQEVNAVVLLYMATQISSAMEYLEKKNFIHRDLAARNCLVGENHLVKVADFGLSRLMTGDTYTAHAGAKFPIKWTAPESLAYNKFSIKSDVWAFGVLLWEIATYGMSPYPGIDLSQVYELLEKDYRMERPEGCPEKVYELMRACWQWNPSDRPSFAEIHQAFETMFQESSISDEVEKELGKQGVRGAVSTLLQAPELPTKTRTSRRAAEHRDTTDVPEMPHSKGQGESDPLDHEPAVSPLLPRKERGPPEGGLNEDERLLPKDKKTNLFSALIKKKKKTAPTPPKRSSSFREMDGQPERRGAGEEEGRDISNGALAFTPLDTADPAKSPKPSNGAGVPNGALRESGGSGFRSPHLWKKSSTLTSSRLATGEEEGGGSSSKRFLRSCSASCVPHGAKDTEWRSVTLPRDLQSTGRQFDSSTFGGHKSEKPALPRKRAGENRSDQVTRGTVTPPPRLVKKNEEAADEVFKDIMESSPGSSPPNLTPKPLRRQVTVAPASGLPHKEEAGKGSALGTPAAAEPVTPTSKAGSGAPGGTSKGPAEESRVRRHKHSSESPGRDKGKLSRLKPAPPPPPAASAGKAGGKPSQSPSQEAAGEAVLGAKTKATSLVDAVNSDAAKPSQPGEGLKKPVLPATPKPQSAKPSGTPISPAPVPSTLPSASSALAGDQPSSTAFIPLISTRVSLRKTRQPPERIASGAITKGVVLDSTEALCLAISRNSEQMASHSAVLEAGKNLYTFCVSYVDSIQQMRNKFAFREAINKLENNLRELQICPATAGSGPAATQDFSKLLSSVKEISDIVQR

C[C@@H](c1ccc2ncccc2c1)c1nnc2sc(-c3cnn(C)c3)nn12
< 50%: all assays above
